Test results: US20260345612A1, “THERAPEUTIC COMBINATIONS COMPRISING UBIQUITIN-SPECIFIC-PROCESSING PROTEASE 1 (USP1) INHIBITORS AND PARP1-SELECTIVE INHIBITORS” (KSQ Therapeutics, Inc., priority 2022, published 2026)

Key:
[1] = system: olaparib resistant patient-derived breast xenograft; assay: Anti-tumor activity in olaparib resistant patient-derived breast xenograft model in nude mice; format: in vivo, Athymic nude mice
Source text: Example 1: Anti-Tumor Activity of Formula I Co-Crystal in Combination with the Selective PARP1 Inhibitor, AZD5305, in a Patient-Derived Breast Xenograft Model in Nude Mice
The USP1 inhibitor employed in the examples is the co-crystal described above in paragraphs and [0143]-[0155]. This co-crystal can be prepared as described in Example 6 of Published PCT WO2022/094096. The Formula I co-crystal is a co-crystal of gentisic acid and 6-(4-cyclopropyl-6-methoxypyrimidin-5-yl)-1-(4-(1-isopropyl-4-(trifluoromethyl)-1H-imidazol-2-yl)benzyl)-1H-pyrazolo[3,4-d]pyrimidine.
Anti-tumor activity of the USP1 inhibitor of Formula I co-crystal in combination with AZD5305 was evaluated in mice using an olaparib resistant patient-derived breast xenograft model in nude mice, as shown in FIGS. 1A through 1C. 6-9 week old female Athymic nude mice from Envigo were anesthetized, and a 20 mm^3 tumor fragment was placed subcutaneously via incision in the flank. When tumors established to a tumor volume ranging from 63 to 196 mm^3, mice were randomized into groups of 10 and were assigned into the following groups: control, Formula I (100 mg/kg), AZD5305 (10 mg/kg) or Formula I (100 mg/kg) and AZD5305 (10 mg/kg) in combination. […] Body weight and tumor volume were measured twice per week. Tumor volume was calculated as mean and standard error of the mean for each treatment group.

[2] = system: breast xenograft tumors with resistance to AZD5305 monotherapy; assay: Combination activity in mice with tumors resistant to PARP inhibitors (AZD5305 monotherapy); format: in vivo, Athymic nude mice; conditions: from day 49, 5 mice resistant to AZD5305 monotherapy; Formula I (100 mg/kg) and AZD5305 (10 mg/kg); FIG. 1B
Method: Anti-tumor activity of the USP1 inhibitor of Formula I co-crystal in combination with AZD5305 was evaluated in mice using an olaparib resistant patient-derived breast xenograft model in nude mice, as shown in FIGS. 1A through 1C. 6-9 week old female Athymic nude mice from Envigo were anesthetized, and a 20 mm^3 tumor fragment was placed subcutaneously via incision in the flank. When tumors established to a tumor volume ranging from 63 to 196 mm^3, mice were randomized into groups of 10 and were assigned into the following groups: control, Formula I (100 mg/kg), AZD5305 (10 mg/kg) or Formula I (100 mg/kg) and AZD5305 (10 mg/kg) in combination. Compound was administered via oral gavage once daily for at least 42 days dependent upon the treatment group. Body weight and tumor volume were measured twice per week. Tumor volume was calculated as mean and standard error of the mean for each treatment group.

Row | SMILES | resistance to AZD5305 monotherapy ([1]; AZD5305 (10 mg/kg) monotherapy, oral once daily, day 49, 5 mice) | anti-tumor activity compared to equivalent doses of the single agents ([1]; Formula I (100 mg/kg) and AZD5305 (10 mg/kg), oral gavage once daily, at least 42 days, FIG. 1A) | tumor volume after addition of Formula I, compared to remaining animals on AZD5305 monotherapy [2]
1 | CCc1cc2ncc(CN3CCN(c4ccc(C(=O)NC)nc4)CC3)cc2[nH]c1=O [AZD5305, 5-[4-[(7-ethyl-6-oxo-5H-1,5-naphthyridin-3-yl)methyl]piperazin-1-yl]-N-methylpyridine-2-carboxamide, reference compound] | demonstrated resistance | – | –
2 | COc1ncnc(C2CC2)c1-c1ncc2cnn(Cc3ccc(-c4nc(C(F)(F)F)cn4C(C)C)cc3)c2n1 [Formula I, 6-(4-cyclopropyl-6-methoxypyrimidin-5-yl)-1-(4-(1-isopropyl-4-(trifluoromethyl)-1H-imidazol-2-yl)benzyl)-1H-pyrazolo[3,4-d]pyrimidine] | – | enhances antitumor activity of AZD5305 | decrease in tumor volume
